Legend:
Format in all cases: biochemical
Aurora A = molecular target: T1, Aurora A (Homo sapiens, UniProt O14965); experiment: Aurora A enzyme inhibition (time-resolved fluorescence, STK substrate-2); conditions: 1 mM ATP
T1 sequence (O14965 1-403): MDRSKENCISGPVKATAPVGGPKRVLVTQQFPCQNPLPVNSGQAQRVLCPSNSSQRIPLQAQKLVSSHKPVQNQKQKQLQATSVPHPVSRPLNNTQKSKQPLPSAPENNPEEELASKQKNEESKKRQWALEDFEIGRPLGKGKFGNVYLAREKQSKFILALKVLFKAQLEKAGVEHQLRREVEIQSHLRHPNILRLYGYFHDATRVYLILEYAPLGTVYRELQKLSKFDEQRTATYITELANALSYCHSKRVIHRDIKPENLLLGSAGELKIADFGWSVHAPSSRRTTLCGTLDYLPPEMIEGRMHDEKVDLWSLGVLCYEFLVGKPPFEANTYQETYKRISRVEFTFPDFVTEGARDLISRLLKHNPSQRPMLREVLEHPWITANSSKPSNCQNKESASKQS
Summary of the method: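 Phosphorylation of biotinylated STK substrate-2 at 1 mM ATP, 1 h, Hepes buffer pH 7.4 (MgCl2, sodium orthovanadate, Triton X-100). After EDTA quench, 665/615 nm time-resolved fluorescence ratio read via europium anti-phospho antibody and SA-XL665; IC50 from exponential fit versus inhibitor concentration.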

Aurora B = molecular target: T2, Aurora B (Homo sapiens, UniProt Q96GD4); experiment: Aurora B enzyme inhibition (time-resolved fluorescence, histone H3 peptide); conditions: 1 mM ATP
T2 construct: Active Aurora B enzyme (recombinant residues 1-344)
T2 sequence (Q96GD4 whole entry, the tested form may be a part): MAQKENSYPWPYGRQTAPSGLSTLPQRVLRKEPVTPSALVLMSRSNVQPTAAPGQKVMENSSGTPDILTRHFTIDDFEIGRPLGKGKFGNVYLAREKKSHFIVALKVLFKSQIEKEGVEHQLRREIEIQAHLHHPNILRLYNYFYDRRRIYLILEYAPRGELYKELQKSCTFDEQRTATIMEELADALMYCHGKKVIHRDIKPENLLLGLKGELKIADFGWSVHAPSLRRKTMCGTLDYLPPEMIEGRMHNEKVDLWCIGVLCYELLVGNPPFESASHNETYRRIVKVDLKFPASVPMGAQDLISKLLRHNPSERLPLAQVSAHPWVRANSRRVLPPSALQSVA
T2 sequence (Q9NQS7 826-918 partner limits assumed): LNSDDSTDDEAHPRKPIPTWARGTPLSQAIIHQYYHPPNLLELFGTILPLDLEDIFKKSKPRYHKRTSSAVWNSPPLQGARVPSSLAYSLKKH
Summary of the method: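 IC50s came from an exponential fit of inhibition against inhibitor concentration, with phosphorylation read as the 665/615 nm time-resolved fluorescence ratio after EDTA stop using Eu-anti-phospho-H3 and SA-APC. The 1 h reaction used Aurora B 1-344 plus GST-INCENP, biotin-histone H3 1-21 peptide and 1 mM ATP in pH 7.4 HEPES buffer.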

KDR = KDR (Homo sapiens, UniProt P35968); experiment: KDR HTRF in vitro kinase assay; set-up: purified enzyme (His6-KDR 789-1354, MW 63 kD); His6 (N); conditions: 1 mM ATP; read-out: KDR enzyme inhibition data (Ki)
Chain of KDR (P35968 789-1354): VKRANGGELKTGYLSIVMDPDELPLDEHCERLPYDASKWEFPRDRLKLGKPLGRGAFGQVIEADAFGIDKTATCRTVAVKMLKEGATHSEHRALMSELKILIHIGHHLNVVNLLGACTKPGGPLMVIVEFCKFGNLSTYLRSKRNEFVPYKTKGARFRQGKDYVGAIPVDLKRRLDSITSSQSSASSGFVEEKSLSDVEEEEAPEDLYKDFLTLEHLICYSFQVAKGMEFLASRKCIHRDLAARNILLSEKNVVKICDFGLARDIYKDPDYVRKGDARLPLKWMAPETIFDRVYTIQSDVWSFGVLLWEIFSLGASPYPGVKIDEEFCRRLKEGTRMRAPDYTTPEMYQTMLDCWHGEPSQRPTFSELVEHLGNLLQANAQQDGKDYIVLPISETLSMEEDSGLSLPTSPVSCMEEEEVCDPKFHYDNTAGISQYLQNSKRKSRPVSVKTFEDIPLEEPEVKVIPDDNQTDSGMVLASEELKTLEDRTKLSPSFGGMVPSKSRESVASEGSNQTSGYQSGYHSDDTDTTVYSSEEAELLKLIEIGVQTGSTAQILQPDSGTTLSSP
Summary of the method: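 His6-KDR 789-1354 (7 ng/well) with 0.5 μM biotinylated peptide substrate and 1 mM ATP in HEPES pH 7.1, MgCl2/MnCl2, 60 min at room temperature. EDTA-quenched, detected by streptavidin-XL-665 plus Eu-kryptate anti-phosphotyrosine HTRF after 3 h; IC50 from 620/665 nm ratio.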

Row | Compound | Ki (Aurora A) | Ki (Aurora B) | Ki (KDR)
1 | NC(=O)[C@@H]1[C@H](Nc2nc(Nc3cnn([C@@H]4CCNC4)c3)ncc2Cl)[C@H]2C=C[C@@H]1C2 [Example 73, (1S,2S,3R,4R)-3-{[5-chloro-2-({1-[(3R)-pyrrolidin-3-yl]-1H-pyrazol-4-yl}amino)pyrimidin-4-yl]amino}bicyclo[2.2.1]hept-5-ene-2-carboxamide] | < 100 nM | < 100 nM | < 100 nM
2 | NC(=O)Cn1cc(Nc2ncc(Cl)c(N[C@H]3[C@@H](C(N)=O)[C@@H]4C=C[C@H]3C4)n2)cn1 [Example 74, (1S,2S,3R,4R)-3-[(2-{[1-(2-amino-2-oxoethyl)-1H-pyrazol-4-yl]amino}-5-chloropyrimidin-4-yl)amino]bicyclo[2.2.1]hept-5-ene-2-carboxamide] | < 100 nM | < 100 nM | < 100 nM
3 | NC(=O)Cn1cc(Nc2ncc(Br)c(N[C@H]3[C@@H](C(N)=O)[C@@H]4C=C[C@H]3C4)n2)cn1 [Example 76, (1S,2S,3R,4R)-3-[(2-{[1-(2-amino-2-oxoethyl)-1H-pyrazol-4-yl]amino}-5-bromopyrimidin-4-yl)amino]bicyclo[2.2.1]hept-5-ene-2-carboxamide] | < 100 nM | < 100 nM | < 100 nM
4 | CC(C)OC(=O)Cn1cc(Nc2ncc(Cl)c(N[C@H]3[C@@H](C(N)=O)[C@@H]4C=C[C@H]3C4)n2)cn1 [Example 78, isopropyl{4-[(4-{[(1R,2R,3S,4S)-3-(aminocarbonyl)bicyclo[2.2.1]hept-5-ene-2-yl]amino}-5-chloropyrimidin-2-yl)amino]-1H-pyrazol-1-yl}acetate] | < 100 nM | < 100 nM | < 100 nM
5 | CCn1cc(Nc2ncc(Br)c(N[C@H]3[C@@H](C(N)=O)[C@@H]4C=C[C@H]3C4)n2)cn1 [Example 79, (1S,2S,3R,4R)-3-({5-bromo-2-[(1-ethyl-1H-pyrazol-4-yl)amino]pyrimidin-4-yl}amino)bicyclo[2.2.1]hept-5-ene-2-carboxamide] | < 100 nM | < 100 nM | < 100 nM
6 | NC(=O)[C@@H]1[C@H](Nc2nc(Nc3cnn(C4CCNCC4)c3)ncc2Cl)[C@H]2C=C[C@@H]1C2 [Example 82, (1S,2S,3R,4R)-3-({5-chloro-2-[(1-piperidin-4-yl-1H-pyrazol-4-yl)amino]pyrimidin-4-yl}amino)bicyclo[2.2.1]hept-5-ene-2-carboxamide] | < 100 nM | < 100 nM | < 100 nM
7 | NC(=O)[C@@H]1[C@H](Nc2nc(Nc3cnn([C@H]4CCCNC4)c3)ncc2Cl)[C@H]2C=C[C@@H]1C2 [Example 83, (1S,2S,3R,4R)-3-{[5-chloro-2-({1-[(3S)-piperidin-3-yl]-1H-pyrazol-4-yl}amino)pyrimidin-4-yl]amino}bicyclo[2.2.1]hept-5-ene-2-carboxamide] | < 100 nM | < 100 nM | < 100 nM
8 | CC(=O)NCC(=O)N1CCC(n2cc(Nc3ncc(Cl)c(N[C@H]4[C@@H](C(N)=O)[C@@H]5C=C[C@H]4C5)n3)cn2)CC1 [Example 85, (1S,2S,3R,4R)-3-{[2-({1-[1-(N-acetylglycyl)piperidin-4-yl]-1H-pyrazol-4-yl}amino)-5-chloropyrimidin-4-yl]amino}bicyclo[2.2.1]hept-5-ene-2-carboxamide] | < 100 nM | < 100 nM | < 100 nM
9 | (1S,2S,3R,4R)-3-[(5-chloro-2-{[1-(1-methylpiperidin-4-yl)-1H-pyrazol-4-yl]amino}pyrimidin-4-yl)amino]bicyclo[2.2.1]hept-5-ene-2-carboxamide and (1R,2R,3S,4S)-3-[(5-chloro-2-{[1-(1-methylpiperidin-4-yl)-1H-pyrazol-4-yl]amino}pyrimidin-4-yl)amino]bicyclo[2.2.1]hept-5-ene-2-carboxamide [Example 40] | < 100 nM | < 100 nM | < 100 nM
10 | (1S,2S,3R,4R)-3-[(5-chloro-2-{[1-(2-morpholin-4-ylethyl)-1H-pyrazol-4-yl]amino}pyrimidin-4-yl)amino]bicyclo[2.2.1]hept-5-ene-2-carboxamide and (1R,2R,3S,4S)-3-[(5-chloro-2-{[1-(2-morpholin-4-ylethyl)-1H-pyrazol-4-yl]amino}pyrimidin-4-yl)amino]bicyclo[2.2.1]hept-5-ene-2-carboxamide [Example 37] | < 100 nM | < 100 nM | < 100 nM
11 | (1S,2S,3R,4R)-3-{[5-chloro-2-({1-[2-(4-methylpiperazin-1-yl)ethyl]-1H-pyrazol-4-yl}amino)pyrimidin-4-yl]amino}bicyclo[2.2.1]hept-5-ene-2-carboxamide and (1R,2R,3S,4S)-3-{[5-chloro-2-({1-[2-(4-methylpiperazin-1-yl)ethyl]-1H-pyrazol-4-yl}amino)pyrimidin-4-yl]amino}bicyclo[2.2.1]hept-5-ene-2-carboxamide [Example 46] | < 100 nM | < 100 nM | < 100 nM
12 | isopropyl{4-[(4-{[(1R,2R,3S,4S)-3-(aminocarbonyl)bicyclo[2.2.1]hept-5-ene-2-yl]amino}-5-fluoropyrimidin-2-yl)amino]-1H-pyrazol-1-yl}acetate and isopropyl{4-[(4-{[(1S,2S,3R,4R)-3-(aminocarbonyl)bicyclo[2.2.1]hept-5-ene-2-yl]amino}-5-fluoropyrimidin-2-yl)amino]-1H-pyrazol-1-yl}acetate [Example 6] | 100 to 1000 nM | 100 to 1000 nM | 100 to 1000 nM

Next, values leading:

Row | Ki (Aurora A) | Ki (Aurora B) | Ki (KDR) | Compound
13 | < 100 nM | < 100 nM | < 100 nM | CNC(=O)Cn1cc(Nc2ncc(Cl)c(N[C@H]3[C@@H](C(N)=O)[C@@H]4C=C[C@H]3C4)n2)cn1 [Example 75, (1S,2S,3R,4R)-3-{[5-chloro-2-({1-[2-(methylamino)-2-oxoethyl]-1H-pyrazol-4-yl}amino)pyrimidin-4-yl]amino}bicyclo[2.2.1]hept-5-ene-2-carboxamide]
14 | < 100 nM | < 100 nM | < 100 nM | CNC(=O)Cn1cc(Nc2ncc(Br)c(N[C@H]3[C@@H](C(N)=O)[C@@H]4C=C[C@H]3C4)n2)cn1 [Example 77, (1S,2S,3R,4R)-3-{[5-bromo-2-({1-[2-(methylamino)-2-oxoethyl]-1H-pyrazol-4-yl}amino)pyrimidin-4-yl]amino}bicyclo[2.2.1]hept-5-ene-2-carboxamide]
15 | < 100 nM | < 100 nM | < 100 nM | CCn1cc(Nc2ncc(C(F)(F)F)c(N[C@@H]3[C@H]4CC[C@H](C4)[C@@H]3C(N)=O)n2)cn1 [Example 80, (1R,2S,3R,4S)-3-{[2-[(1-ethyl-1H-pyrazol-4-yl)amino]-5-(trifluoromethyl)pyrimidin-4-yl]amino}bicyclo[2.2.1]heptane-2-carboxamide]
16 | < 100 nM | < 100 nM | < 100 nM | NC(=O)[C@@H]1[C@H](Nc2nc(Nc3cnn(C4CNC4)c3)ncc2Cl)[C@H]2C=C[C@@H]1C2 [Example 81, (1S,2S,3R,4R)-3-({2-[(1-azetidin-3-yl-1H-pyrazol-4-yl)amino]-5-chloropyrimidin-4-yl}amino)bicyclo[2.2.1]hept-5-ene-2-carboxamide]
17 | < 100 nM | < 100 nM | < 100 nM | NC(=O)[C@@H]1[C@H](Nc2nc(Nc3cnn([C@@H]4CCCNC4)c3)ncc2Cl)[C@H]2C=C[C@@H]1C2 [Example 84, (1S,2S,3R,4R)-3-{[5-chloro-2-({1-[(3R)-piperidin-3-yl]-1H-pyrazol-4-yl}amino)pyrimidin-4-yl]amino}bicyclo[2.2.1]hept-5-ene-2-carboxamide]
18 | < 100 nM | < 100 nM | < 100 nM | (1S,2S,3R,4R)—N-cyclopropyl-3-{[2-[(1-methyl-1H-pyrazol-4-yl)amino]-5-(trifluoromethyl)pyrimidin-4-yl]amino}bicyclo[2.2.1]hept-5-ene-2-carboxamide and (1R,2R,3S,4S)—N-cyclopropyl-3-{[2-[(1-methyl-1H-pyrazol-4-yl)amino]-5-(trifluoromethyl)pyrimidin-4-yl]amino}bicyclo[2.2.1]hept-5-ene-2-carboxamide [Example 70]

From patent US8426408B2, “Pyrimidine inhibitors of kinases” (AbbVie Inc., priority 2009, dated 2013)
